{"source": "patent US12037583B2", "about": "“Compositions and methods for immunooncology” (Novartis AG, priority 2015, dated 2024)", "tested_on": "PDCD1", "test": "NGS editing of PDCD1 by dgRNA in HEK cells stably expressing Cas9;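 further: dgRNA lipofected into Cas9-expressing HEK cells, lysed after 24 h, target amplicon sequenced, editing = reads carrying insertions or deletions as percent of all reads including wild type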", "type": "cell-based, human", "conditions": "at least 3 experiments", "description": "Transfection of Cas9GFP-expressing HEK293 cells (HEK-293_Cas9GFP) was used for primary screening of target specific crRNAs. […] Selected crRNAs were chemically synthesized and delivered in a 96 well format. HEK-293-Cas9GFP cells were transfected with target crRNAs comprising a flagpole region of SEQ ID NO: 6607 in a 1:1 ratio with stock trRNA of SEQ ID NO: 6660. The transfection was mediated using lipofection technology according to manufacturer's protocol (DharmaFECT Duo, GE LifeSciences; or RNAiMax, LifeTechnologies). Transfected cells were lysed 24 h following lipofection and editing (e.g., cleavage) was detected within lysates with the T7E1 assay and/or next generation sequencing (NGS; below).\nPCR primers were first designed around the target site, and the genomic area of interest PCR amplified. Additional PCR was performed according to manufacturer's protocols (Illumina) to add the necessary chemistry for sequencing. The amplicons were then sequenced on an Illumina MiSeq instrument. The reads were then aligned to the human reference genome (e.g., hg38) after eliminating those having low quality scores. From the resulting files containing the reads mapped to the reference genome (BAM files), reads which overlap the target region of interest were selected and the number of wild type reads versus the number of reads which contain an insertion or deletion was calculated. The editing percentage was then defined as the total number of reads with insertions or deletions over the total number of reads, including wild type. To determine the pattern of insertions and/or deletions that resulted from the edit, the aligned reads with indels were selected and the number of a reads with a given indel were summed.\nEditing of CRISPR systems containing dgRNA molecules comprising targeting domains to sequences of PDCD1 were tested for editing in HEK (gRNA delivered to cells stably expressing Cas9) and CD3+ T cells (gRNA and Cas9 delivered as RNP) according to the methods described herein.\nAll mean editing % are as measured by NGS and are based on at least 3 experiments.", "data": [{"substance": "CR000858: dgRNA targeting domain to PDCD1 (guide CAGCUUGUCCGUCUGGUUGC; targeting domain within dual guide RNA, chemistry not given here, further chemistry not given here; listed as Homo sapiens)", "values": [{"measurement": "HEK (NGS) % Editing Mean", "value": 16, "unit": "%"}]}, {"substance": "CR000863: dgRNA targeting domain to PDCD1 (guide CCGGGCUGGCUGCGGUCCUC; targeting domain within dual guide RNA, chemistry not given here, further chemistry not given here; listed as Homo sapiens)", "values": [{"measurement": "HEK (NGS) % Editing Mean", "value": 40, "unit": "%"}]}, {"substance": "CR000864: dgRNA targeting domain to PDCD1 (guide CCCGAGGACCGCAGCCAGCC; targeting domain within dual guide RNA, chemistry not given here, further chemistry not given here; listed as Homo sapiens)", "values": [{"measurement": "HEK (NGS) % Editing Mean", "value": 7, "unit": "%"}]}, {"substance": "CR000865: dgRNA targeting domain to PDCD1 (guide GCCGGGCUGGCUGCGGUCCU; targeting domain within dual guide RNA, chemistry not given here, further chemistry not given here; listed as Homo sapiens)", "values": [{"measurement": "HEK (NGS) % Editing Mean", "value": 4, "unit": "%"}]}, {"substance": "CR000866: dgRNA targeting domain to PDCD1 (guide CGGAAGCGGCAGUCCUGGCC; targeting domain within dual guide RNA, chemistry not given here, further chemistry not given here; listed as Homo sapiens)", "values": [{"measurement": "HEK (NGS) % Editing Mean", "value": 4, "unit": "%"}]}, {"substance": "CR000867: dgRNA targeting domain to PDCD1 (guide ACGGAAGCGGCAGUCCUGGC; targeting domain within dual guide RNA, chemistry not given here, further chemistry not given here; listed as Homo sapiens)", "values": [{"measurement": "HEK (NGS) % Editing Mean", "value": 24, "unit": "%"}]}, {"substance": "CR000868: gRNA targeting domain to PDCD1, UGACACGGAAGCGGCAGUCC (SEQ ID NO: 5764) (targeting domain within guide RNA, chemistry not given here, further chemistry not given here; listed as Homo sapiens)", "values": [{"measurement": "HEK (NGS) % Editing Mean", "value": 47, "unit": "%"}]}, {"substance": "CR000869: dgRNA targeting domain to PDCD1 (guide GCAGUUGUGUGACACGGAAG; targeting domain within dual guide RNA, chemistry not given here, further chemistry not given here; listed as Homo sapiens)", "values": [{"measurement": "HEK (NGS) % Editing Mean", "value": 55, "unit": "%"}]}, {"substance": "CR000870: dgRNA targeting domain to PDCD1 (guide CGUGUCACACAACUGCCCAA; targeting domain within dual guide RNA, chemistry not given here, further chemistry not given here; listed as Homo sapiens)", "values": [{"measurement": "HEK (NGS) % Editing Mean", "value": 66, "unit": "%"}]}, {"substance": "CR000871: dgRNA targeting domain to PDCD1 (guide GUGUCACACAACUGCCCAAC; targeting domain within dual guide RNA, chemistry not given here, further chemistry not given here; listed as Homo sapiens)", "values": [{"measurement": "HEK (NGS) % Editing Mean", "value": 57, "unit": "%"}]}, {"substance": "CR000872: dgRNA targeting domain to PDCD1 (guide AUGUGGAAGUCACGCCCGUU; targeting domain within dual guide RNA, chemistry not given here, further chemistry not given here; listed as Homo sapiens)", "values": [{"measurement": "HEK (NGS) % Editing Mean", "value": 26, "unit": "%"}]}, {"substance": "CR000874: dgRNA targeting domain to PDCD1 (guide GCGUGACUUCCACAUGAGCG; targeting domain within dual guide RNA, chemistry not given here, further chemistry not given here; listed as Homo sapiens)", "values": [{"measurement": "HEK (NGS) % Editing Mean", "value": 47, "unit": "%"}]}, {"substance": "CR000875: dgRNA targeting domain to PDCD1 (guide ACUUCCACAUGAGCGUGGUC; targeting domain within dual guide RNA, chemistry not given here, further chemistry not given here; listed as Homo sapiens)", "values": [{"measurement": "HEK (NGS) % Editing Mean", "value": 6, "unit": "%"}]}, {"substance": "CR000877: dgRNA targeting domain to PDCD1 (guide GGGCCCUGACCACGCUCAUG; targeting domain within dual guide RNA, chemistry not given here, further chemistry not given here; listed as Homo sapiens)", "values": [{"measurement": "HEK (NGS) % Editing Mean", "value": 5, "unit": "%"}]}, {"substance": "CR000878: dgRNA targeting domain to PDCD1 (guide ACAUGAGCGUGGUCAGGGCC; targeting domain within dual guide RNA, chemistry not given here, further chemistry not given here; listed as Homo sapiens)", "values": [{"measurement": "HEK (NGS) % Editing Mean", "value": 1, "unit": "%"}]}, {"substance": "CR000879: dgRNA targeting domain to PDCD1 (guide AGGGCCCGGCGCAAUGACAG; targeting domain within dual guide RNA, chemistry not given here, further chemistry not given here; listed as Homo sapiens)", "values": [{"measurement": "HEK (NGS) % Editing Mean", "value": 68, "unit": "%"}]}, {"substance": "CR000880: dgRNA targeting domain to PDCD1 (guide GGUGCCGCUGUCAUUGCGCC; targeting domain within dual guide RNA, chemistry not given here, further chemistry not given here; listed as Homo sapiens)", "values": [{"measurement": "HEK (NGS) % Editing Mean", "value": 10, "unit": "%"}]}, {"substance": "CR000881: gRNA targeting domain to PDCD1, AGGUGCCGCUGUCAUUGCGC (SEQ ID NO: 5777) (targeting domain within guide RNA, chemistry not given here, further chemistry not given here; listed as Homo sapiens)", "values": [{"measurement": "HEK (NGS) % Editing Mean", "value": 21, "unit": "%"}]}, {"substance": "CR000882: dgRNA targeting domain to PDCD1 (guide GACAGCGGCACCUACCUCUG; targeting domain within dual guide RNA, chemistry not given here, further chemistry not given here; listed as Homo sapiens)", "values": [{"measurement": "HEK (NGS) % Editing Mean", "value": 50, "unit": "%"}]}, {"substance": "CR000883: dgRNA targeting domain to PDCD1 (guide ACAGCGGCACCUACCUCUGU; targeting domain within dual guide RNA, chemistry not given here, further chemistry not given here; listed as Homo sapiens)", "values": [{"measurement": "HEK (NGS) % Editing Mean", "value": 9, "unit": "%"}]}, {"substance": "CR000884: dgRNA targeting domain to PDCD1 (guide CCAGGGAGAUGGCCCCACAG; targeting domain within dual guide RNA, chemistry not given here, further chemistry not given here; listed as Homo sapiens)", "values": [{"measurement": "HEK (NGS) % Editing Mean", "value": 59, "unit": "%"}]}, {"substance": "CR000885: dgRNA targeting domain to PDCD1 (guide GAUCUGCGCCUUGGGGGCCA; targeting domain within dual guide RNA, chemistry not given here, further chemistry not given here; listed as Homo sapiens)", "values": [{"measurement": "HEK (NGS) % Editing Mean", "value": 10, "unit": "%"}]}, {"substance": "CR000886: dgRNA targeting domain to PDCD1 (guide UGAUCUGCGCCUUGGGGGCC; targeting domain within dual guide RNA, chemistry not given here, further chemistry not given here; listed as Homo sapiens)", "values": [{"measurement": "HEK (NGS) % Editing Mean", "value": 2, "unit": "%"}]}, {"substance": "CR000887: dgRNA targeting domain to PDCD1 (guide CUCUUUGAUCUGCGCCUUGG; targeting domain within dual guide RNA, chemistry not given here, further chemistry not given here; listed as Homo sapiens)", "values": [{"measurement": "HEK (NGS) % Editing Mean", "value": 46, "unit": "%"}]}, {"substance": "CR000888: dgRNA targeting domain to PDCD1 (guide UCUCUUUGAUCUGCGCCUUG; targeting domain within dual guide RNA, chemistry not given here, further chemistry not given here; listed as Homo sapiens)", "values": [{"measurement": "HEK (NGS) % Editing Mean", "value": 4, "unit": "%"}]}, {"substance": "CR000889: dgRNA targeting domain to PDCD1 (guide CUCUCUUUGAUCUGCGCCUU; targeting domain within dual guide RNA, chemistry not given here, further chemistry not given here; listed as Homo sapiens)", "values": [{"measurement": "HEK (NGS) % Editing Mean", "value": 3, "unit": "%"}]}, {"substance": "CR000890: dgRNA targeting domain to PDCD1 (guide GCUCUCUUUGAUCUGCGCCU; targeting domain within dual guide RNA, chemistry not given here, further chemistry not given here; listed as Homo sapiens)", "values": [{"measurement": "HEK (NGS) % Editing Mean", "value": 5, "unit": "%"}]}, {"substance": "CR000891: dgRNA targeting domain to PDCD1 (guide CGCAGAUCAAAGAGAGCCUG; targeting domain within dual guide RNA, chemistry not given here, further chemistry not given here; listed as Homo sapiens)", "values": [{"measurement": "HEK (NGS) % Editing Mean", "value": 29, "unit": "%"}]}, {"substance": "CR000892: dgRNA targeting domain to PDCD1 (guide GCAGAUCAAAGAGAGCCUGC; targeting domain within dual guide RNA, chemistry not given here, further chemistry not given here; listed as Homo sapiens)", "values": [{"measurement": "HEK (NGS) % Editing Mean", "value": 45, "unit": "%"}]}, {"substance": "CR000893: dgRNA targeting domain to PDCD1 (guide AGAGCCUGCGGGCAGAGCUC; targeting domain within dual guide RNA, chemistry not given here, further chemistry not given here; listed as Homo sapiens)", "values": [{"measurement": "HEK (NGS) % Editing Mean", "value": 10, "unit": "%"}]}, {"substance": "CR000894: dgRNA targeting domain to PDCD1 (guide AGGGUUUGGAACUGGCCGGC; targeting domain within dual guide RNA, chemistry not given here, further chemistry not given here; listed as Homo sapiens)", "values": [{"measurement": "HEK (NGS) % Editing Mean", "value": 19, "unit": "%"}]}]}
